Measurements: US7622490B2, “Broadspecturm 2-amino-benzoxazole sulfonamide HIV protease inhibitors” (Tibotec Pharmaceuticals, Ltd., priority 2001, dated 2009)

How the values were obtained:
Assay type in all cases: cell-based
HIV strain B = experiment: Cellular anti-HIV assay, clinically isolated mutant strain B; conditions: FR=EC50(mutant strain)/EC50(HIV-I strain LAI); MT4 cells
Procedure: (§1) HIV- or mock-infected MT4 cells were incubated for five days in the presence of various concentrations of the inhibitor. At the end of the incubation period, all HIV-infected cells have been killed by the replicating virus in the control cultures in the absence of any inhibitor. Cell viability is measured by measuring the concentration of MTT, a yellow, water soluble tetrazolium dye that is converted to a purple, water insoluble formazan in the mitochondria of living cells only. Upon solubilization of the resulting formazan crystals with isopropanol, the absorbance of the solution is monitored at 540 nm. The values correlate directly to the number of living cells remaining in the culture at the completion of the five day incubation. The inhibitory activity of the compound was monitored on the virus-infected cells and was expressed as EC50 and EC90. These values represent the amount of the compound required to protect 50% and 90%, respectively, of the cells from the cytopathogenic effect of the virus. […] Whetever results are reported as e.g. pEC50 or pCC50 values, the result is expressed as the negative logarithm of the result expressed as EC50 or CC50 respectively. […]
(§2) As a measure of the broad spectrum activity of the present compounds, the fold resistance (FR), defined as FR=EC50(mutant strain)/EC50(HIV-I strain LAI), was determined.

HIV strain E = experiment: Cellular anti-HIV assay, clinically isolated mutant strain E; conditions: FR=EC50(mutant strain)/EC50(HIV-I strain LAI); MT4 cells
Procedure: as §1, §2

HIV-1 strain LAI = experiment: Cellular anti-HIV assay (MTT) in MT4 cells, wild type strain; conditions: five days
Procedure: The compounds of the present invention were examined for anti-viral activity in a cellular assay. […] The cellular assay was performed according to the following procedure.
HIV- or mock-infected MT4 cells were incubated for five days in the presence of various concentrations of the inhibitor. At the end of the incubation period, all HIV-infected cells have been killed by the replicating virus in the control cultures in the absence of any inhibitor. Cell viability is measured by measuring the concentration of MTT, a yellow, water soluble tetrazolium dye that is converted to a purple, water insoluble formazan in the mitochondria of living cells only. Upon solubilization of the resulting formazan crystals with isopropanol, the absorbance of the solution is monitored at 540 nm. The values correlate directly to the number of living cells remaining in the culture at the completion of the five day incubation. The inhibitory activity of the compound was monitored on the virus-infected cells and was expressed as EC50 and EC90. […] Whetever results are reported as e.g. pEC50 or pCC50 values, the result is expressed as the negative logarithm of the result expressed as EC50 or CC50 respectively.
as §2

HIV strain C = experiment: Cellular anti-HIV assay, clinically isolated mutant strain C; conditions: FR=EC50(mutant strain)/EC50(HIV-I strain LAI); MT4 cells
Procedure: as §1, §2

HIV strain D = experiment: Cellular anti-HIV assay, clinically isolated mutant strain D; conditions: FR=EC50(mutant strain)/EC50(HIV-I strain LAI); MT4 cells
Procedure: as §1, §2

HIV strain F = experiment: Cellular anti-HIV assay, clinically isolated mutant strain F; conditions: FR=EC50(mutant strain)/EC50(HIV-I strain LAI); MT4 cells
Procedure: as §1, §2

mock-infected MT4 cells = experiment: Toxicity on mock-infected MT4 cells (MTT); conditions: pCC50 value as determined with mock transfected cells; five days
Procedure: HIV- or mock-infected MT4 cells were incubated for five days in the presence of various concentrations of the inhibitor. At the end of the incubation period, all HIV-infected cells have been killed by the replicating virus in the control cultures in the absence of any inhibitor. Cell viability is measured by measuring the concentration of MTT, a yellow, water soluble tetrazolium dye that is converted to a purple, water insoluble formazan in the mitochondria of living cells only. Upon solubilization of the resulting formazan crystals with isopropanol, the absorbance of the solution is monitored at 540 nm. The values correlate directly to the number of living cells remaining in the culture at the completion of the five day incubation. The inhibitory activity of the compound was monitored on the virus-infected cells and was expressed as EC50 and EC90. These values represent the amount of the compound required to protect 50% and 90%, respectively, of the cells from the cytopathogenic effect of the virus. […] Whetever results are reported as e.g. pEC50 or pCC50 values, the result is expressed as the negative logarithm of the result expressed as EC50 or CC50 respectively.
as §2

HIV strain A = experiment: Cellular anti-HIV assay, clinically isolated mutant strain A; conditions: FR=EC50(mutant strain)/EC50(HIV-I strain LAI); MT4 cells
Procedure: as §1, §2

SMILES | FR towards mutant B (HIV strain B) | FR towards mutant E (HIV strain E) | WT (pEC50) (HIV-1 strain LAI) | FR towards mutant C (HIV strain C) | FR towards mutant D (HIV strain D) | FR towards mutant F (HIV strain F) | Tox (pCC50) (mock-infected MT4 cells) | FR value towards mutant A (HIV strain A)
CNc1nc2ccc(S(=O)(=O)N(CC(C)C)CC(O)C(Cc3ccccc3)NC(=O)OC3COC4OCCNC34)cc2o1 (mixture of isomers) [Compound 44] | 1.3 | 0.56 | 7.36 | 0.93 | 0.56 | 4.9 | 4 | 1.6
CNc1nc2ccc(S(=O)(=O)N(CC(C)C)CC(O)C(Cc3ccccc3)NC(=O)OC3COC4OCCNC34)cc2o1 (mixture of isomers) [Compound 43] | 1.6 | 0.59 | 7.32 | 0.8 | 0.62 | 14 | 4 | 3.3
